The values that follow are results of earlier work, collected in paper PMC11255275, “Structural insights into the triple agonism at GLP-1R, GIPR and GCGR manifested by retatrutide” (Cell Discovery, 2024).

The test system of one series is GLP-1R. The settings on record: among GLP-1R, GIPR and GCGR; general statement in introduction; cited from earlier work. An excerpt: (§1) The most successful treatments currently available include glucagon-like peptide-1 (GLP-1) receptor agonists (GLP-1RAs), exemplified by semaglutide (approved in 2017, $19.9 billion sales in 2023)[3] and tirzepatide (approved in 2022, $5.3 billion sales in 2023)[4].

The subject of another series is GIPR. The settings on record: in addition to GLP-1R; cited from earlier work.
Source text: as §1

With semaglutide, the receptor activation entry with GLP-1R is reported as “solely activates GLP-1R”.

For tirzepatide, the receptor activation result in the series on GIPR is on record as “also activates glucose-dependent insulinotropic polypeptide (GIP) receptor (GIPR)”.
